Test results: US7928182B2, “Glycerol polycarbonate, organic compositions containing same and method for obtaining said compositions” (Condat S.A., priority 2004, dated 2011)

Assays:
Type in all cases: physicochemical
[1] = Combustion heat (ASTM D240); settings: reference samples and control
Experimental: b) The combustion heat (kJ/g) was also measured according to standard ASTM D240. The combustion heat characterises the calorific energy released by a burning compound. The higher this value is, the better fuel a compound is and the more the “fire” is maintained by this factor, which is the temperature.

[2] = Surface tension (ring tensiometer); settings: 25° C., glycerol carbonate alone; in mN/m (unit assumed)
Density (densimeter) = settings: 25° C., glycerol carbonate alone; in g/cm3 (unit assumed)

| SMILES | Combustion heat [1] | Surface tension [2] | Density (Density (densimeter)) |
| --- | --- | --- | --- |
| CCO [Ethanol] | 26.4 kJ/g | – | – |
| CCCCCCC [Heptane] | 40.2 kJ/g | – | – |
| CO [Methanol] | 19.6 kJ/g | – | – |
| O=C1OCC(CO)O1 (centres unmarked) [glycerol carbonate] | – | 53.81 | 1.386 |
